From patent publication US10112918B2, “15-oxospiramilactone derivatives, preparation method and uses thereof” (Kunming Institute of Botany, The Chinese Academy of Sciences, priority 2013, dated 2018)
Like-named read-outs stand apart in the source and are kept apart here.

Experiments:
Type in all cases: cell-based
[1] = tested on: A-549 (Human lung adenocarcinoma cells); experiment: MTT inhibition of tumor cell growth, A-549; settings: Homo sapiens, A549, 48 h
Summary of the method: (§1)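 Cells were seeded at 5000-10000 per well in DMEM or RPMI1640 with 10% FBS, adherent lines pre-cultured 12 h. Compounds were tested at 40 μM, with 5-concentration re-screening for those near 50% inhibition, in triplicate for 48 h at 37° C; MTT/SDS absorbance at 595 nm gave IC50 by Reed-Muench.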

[2] = tested on: Wnt signaling pathway (Top-Flash reporter gene); experiment: Top-Flash Wnt reporter gene assay in HEK293T cells with Wnt3a conditioned medium; settings: Homo sapiens, HEK-293T, 6 h, HEK293T, Wnt3a conditioned medium, 6 h, read-out: IC50 (μM), inhibitory activity on the Wnt signaling pathway
Protocol: HEK293T cells were cultured in DMEM containing 10% fetal bovine serum (Invitrogen) at 37° C., 5% CO2. The cells were passaged every other day. The density was retained at 70˜80% during passage. L cell line (CRL-2647, purchased from the gene bank of ATCC, the US) and the control cell line (CRL-2648, purchased from ATCC, US), which stably secreted mouse Wnt3a protein, were cultured in DMEM containing 50 ug/ml G418 and 10% fetal bovine serum, at 37° C., 5% CO2. When the cells grew to a density of about 70%, the medium was replaced with DMEM containing 10% fetal bovine serum. After continuous culture for 4 days, the culture was collected and centrifuged, and the supernatant was kept so that the Wnt conditioned medium was obtained. After titration assay, the conditioned medium was quick-frozen in liquid nitrogen, and placed at −80° C. for long-term storage, so that the titer was kept unchanged.
The cells were seeded to a 48-well plate at a density of […] cells per well, and transfected 20 h later. The reagents for plasmid transfection were calculated based on the amount in each well of the 48-well plate as following: the total amount of plasmid was 125 ng/well; the plasmid was first added to a serum-free medium (25 μL/well) and mixed well; PLUS reagent (Invitrogen) was then added in an amount of 0.5 μL/well and mixed well, then stood for 15 min; Lipofectamine (Invitrogen) liposome was added in an amount of 0.5 μL/well to serum-free DMEM medium (25 μL/well), and then mixed with the solution containing the plasmid and the PLUS, and stood for 15 min. The cells were cultured in serum-free DMEM medium (100 μL/well), and the final mixture of plasmid, PLUS and Lipofectamine were added to the cells. After incubation for 3 h, the transfection was stopped by the medium containing 10% fetal bovine serum (200 μL/well).
The HEK293T cells used for activity assay of the report gene were transfected by the method as shown in 2). Activity assay of Wnt reporter gene: the amount of plasmid for transfection was 5 ng/well for TOP-flash and 5 ng/well for GFP plasmid as internal standard, with lacZ added to reach a total amount of 125 ng/well. […] After treating for 6 h, Boehringer Mannheim Luci-ferase Assay Kit was used to lyse cells (200 μL/well). 50 μL from each well was pipetted into a 96-well plate. The indensity of GFP protein in the cell lysate was measured by fluorimeter FL600 (BIO-TEK Inc. Winooski, Vt.), and taken as internal standard for cell transfection efficiency. 10 μL substrate of luciferase was then added to each well, and the activity of luciferase was measured by Micro Lumate Plus (Perkin Elmer Inc. Wellesley, Mass.) luminometer. Finally, GFP indensity was used as internal standard to calibrate the activity of luciferase, i.e. the activity of Wnt reporter gene.
Calculation of IC50 (taking the calculation of IC50 of the Wnt signaling pathway for example): background (the activity as measured in the groups treated with a conditioned medium containing DMSO only) was subtracted from the reporter gene activity as measured in the groups treated by Wnt3a conditioned medium with or without the compound to be tested at different concentrations; and the obtained value was defined as the activity of the reporter gene induced by Wnt or the residual activity of the reporter gene after adding the compound to be tested. The residual activity was normalized by the activity induced by Wnt to get the relative residual activity. Then combine with the concentrations of the compound to be tested to plot a linear graph, and a dose-effect curve was fitted based on 4-parameter logistic fit. IC50 of the Wnt signaling pathway is determined as the concentration at which the relative residual activity is 0.5.

[3] = tested on: SMMC-7721 (human hepatoma cells); experiment: MTT inhibition of tumor cell growth, SMMC-7721; settings: Homo sapiens, SMMC-7721, 48 h
Summary of the method: as §1

[4] = tested on: HL-60 (human promyelocytic leukemia cells); experiment: MTT inhibition of tumor cell growth, HL-60; settings: Homo sapiens, HL-60, 48 h
Summary of the method: as §1

[5] = tested on: MCF-7 (human breast cancer cells); experiment: MTT inhibition of tumor cell growth, MCF-7; settings: Homo sapiens, MCF7, 48 h
Summary of the method: as §1

[6] = tested on: SW-480 (human colon cancer cells); experiment: MTT inhibition of tumor cell growth, SW-480; settings: Homo sapiens, SW480, 48 h
Summary of the method: as §1

[7] = Table 3, single Michael reaction acceptor, modified lactonic ring
[8] = Table 1, 7-hydroxy derivatives of S-3
[9] = Table 7 (second), derivatives modified on 7-hydroxyl of S-3
[10] = Table 1, 7-hydroxy derivatives of S-3, read-out: IC50 SW-480
[11] = Table 2, derivatives having potential Michael reaction acceptor

IC50 [1, 8] [nM] | IC50 [2, 9] [µM] | IC50 [3, 8] [nM] | IC50 [4, 8] [µM] | IC50 [5, 8] [µM] | IC50 [6, 10] [nM] | also measured | Structure (SMILES)
– | – | – | – | – | – | IC50 [1, 7]: 3170 nM; IC50 ([2]; Table 8): 27.4 ± 0.98 µM; IC50 [3, 7]: 1870 nM; IC50 [4, 7]: 4.2 µM; IC50 [5, 7]: 5.04 µM; IC50 ([6]; Table 3, single Michael reaction acceptor, modified lactonic ring, read-out: IC50 SW-480): 4190 nM; IC50 ([6]; Table 6, 7-hydroxyl derivatives and controls, read-out: IC50 SW-480, 7-hydroxyl derivatives): 2900 nM | C=C1C(=O)[C@]23CC[C@H]1CC2[C@@]12CCC[C@@](C)(CO[C@H]1OC)C2C[C@H]3O (stereo partly shown) [Compound 21]
2140 | 18.9 ± 2.48 | 3050 | 4.01 | 3.11 | 2220 | – | C=C1C(=O)C23CC[C@H]1CC2[C@@]12CCC[C@@](C)(COC1=O)C2C[C@H]3OC(=O)c1ccco1 (stereo partly shown) [Compound 1n]
1050 | 10.7 ± 0.39 | 2890 | 0.86 | 0.8 | 690 | – | C=C1C(=O)C23CC[C@H]1CC2[C@@]12CCC[C@@](C)(COC1=O)C2C[C@H]3OC(=O)c1ccc([N+](=O)[O-])cc1 (stereo partly shown) [Compound 1k]
6690 | > 60 | 23400 | 6.63 | 9.05 | 18400 | – | C=C1C(=O)[C@]23CC[C@H]1CC2[C@@]12CCC[C@@](C)(COC1=O)C2C[C@H]3S(=O)(=O)c1ccccc1[N+](=O)[O-] (stereo partly shown) [Compound 1u]
6080 | 20.2 ± 2.59 | 13000 | 5.72 | 2.74 | 7810 | – | C=C1C(=O)C23CC[C@H]1CC2[C@@]12CCC[C@@](C)(COC1=O)C2C[C@H]3OC(=O)C(F)(F)F (stereo partly shown) [Compound 1f]
500 | 28.8 ± 0.56 | 1230 | 1.05 | 3.47 | 3000 | – | C=C1C(=O)[C@]23CC[C@H]1CC2[C@@]12CCC[C@@](C)(COC1=O)C2C[C@H]3OC(=O)CBr (stereo partly shown) [Compound 1d]
– | – | – | – | – | – | IC50 [1, 11]: 770 nM; IC50 ([2]; Table 10): 15.4 ± 1.5 µM; IC50 [3, 11]: 1900 nM; IC50 [4, 11]: 1.94 µM; IC50 [5, 11]: 1.44 µM; IC50 ([6]; Table 2, derivatives having potential Michael reaction acceptor, read-out: IC50 SW-480): 1530 nM | C=C1C(=O)[C@]23CC[C@H]1CC2[C@@]12CCC[C@@](C)(COC1)C2[C@H](CO)C3=O (stereo partly shown) [Compound 30]
